One test has as its target MDM2 (Homo sapiens, UniProt Q00987). The test can be described thus: MDM2 binding assay (fluorescence polarization). To be noted: for Inhibition (200 μM, %): 200 μM compound; for inhibition at 200 µM: read-out: Inhibition (200 μM, %), 200 μM compound. How it is done: The MDM2 binding tests of all 17 compounds were carried out by a fluorescence polarization assay.
30 nM preincubated (30 min) MDM2 and 10 nM PMDM-F peptide in reaction buffer (100 μL, potassium phosphate, 100 mM; bovine gamma globulin, […]; sodium azide, 0.02%) were added into a 96-well plate containing tested compounds at pH 7.5. […] The Ki values were calculated according to a reported method.
(In fluorescence polarisation assays a small probe gives low polarisation when free and higher when bound to something large.)

The subject of a further test is HCT116 (p53 +/+) cells. The test can be described thus: cells. The test is classed as cell-based, human. To be noted: read-out: IC50 (μM) ± SD HCT116 (p53 +/+). How it is done:
(§1) Compounds were tested at six concentrations (0.001–100 μM).
(§2) The cells were seeded into a 96-well plate and incubated at 37°C in 5% CO2 for 24 h, after which the test compounds were added to the culture medium and the cells were incubated for 48 h. 20 μL fresh MTT was added to each well, and the cells were incubated at 37°C in 5% CO2 for 4 h. After removing the culture medium, 150 μL DMSO was added to dissolve the formazan crystals. The absorbance at 540 nm was measured using a microplate reader. The results, expressed as IC50 values, were the average of three determinations and were calculated using nonlinear regression analysis.

A further test has as its system HCT116 (p53 -/-) cells. The test can be described thus: cells. The test is classed as cell-based, human. To be noted: read-out: IC50 (μM) ± SD HCT116 (p53 -/-). How it is done:
as §1, §2

The next test relates to MCF7 (p53 +/+) cells. The test can be described thus: cells. To be noted: read-out: IC50 (μM) ± SD MCF7 (p53 +/+). The test is classed as cell-based, human. How it is done: as §1, §2
The subject of another test is MCF7 (p53 -/-) cells. Kind of test: cells. The test is classed as cell-based. To be noted: Homo sapiens, read-out: IC50 (μM) ± SD MCF7 (p53 -/-). How it is done:
as §1, §2

For another test, the target named is T1, Cathepsin K (Homo sapiens, UniProt P43235).
T1 sequence (P43235 115-329): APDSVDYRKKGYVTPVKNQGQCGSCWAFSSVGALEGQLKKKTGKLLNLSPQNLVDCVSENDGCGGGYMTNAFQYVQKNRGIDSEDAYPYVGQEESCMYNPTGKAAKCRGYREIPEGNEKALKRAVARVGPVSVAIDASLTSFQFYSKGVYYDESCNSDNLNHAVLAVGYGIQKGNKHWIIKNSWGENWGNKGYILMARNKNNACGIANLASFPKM
The test can be described thus: Cathepsin K inhibitory activity. The test is classed as biochemical. To be noted: read-out: Cathepsin K IC50.

The subject of a further test is human MDM2. To be noted: training set, cited from earlier work; for IC50: ref 24 (TS-1), 25 (TS-2), 12 (TS-3), 26 (TS-4), 8 (TS-6), 28 (TS-7), read-out: Potency human MDM2 (nM), IC50.
Setting [1] is: Homo sapiens, HCT-116, MTT, 48 h.

Where two headings read alike, the source gives them in different places. Bounds are passed on as bounds.

MDM2, sequence (Q00987 whole entry): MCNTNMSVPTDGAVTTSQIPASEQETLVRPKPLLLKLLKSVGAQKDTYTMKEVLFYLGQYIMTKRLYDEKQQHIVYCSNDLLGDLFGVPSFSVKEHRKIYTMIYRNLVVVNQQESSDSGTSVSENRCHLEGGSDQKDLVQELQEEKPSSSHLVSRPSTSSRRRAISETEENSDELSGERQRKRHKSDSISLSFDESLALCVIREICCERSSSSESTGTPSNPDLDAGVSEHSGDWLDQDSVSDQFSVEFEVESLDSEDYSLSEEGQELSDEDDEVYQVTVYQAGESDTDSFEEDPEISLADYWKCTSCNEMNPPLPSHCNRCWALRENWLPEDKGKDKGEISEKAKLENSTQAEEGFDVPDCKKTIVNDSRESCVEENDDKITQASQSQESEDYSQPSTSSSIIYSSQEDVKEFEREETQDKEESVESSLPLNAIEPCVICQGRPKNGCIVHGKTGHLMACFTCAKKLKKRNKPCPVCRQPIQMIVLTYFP

For the compound `C=CCn1c(SCC(=O)N2N=C(c3ccco3)CC2c2ccco2)nnc1-c1ccncc1` (stereo not drawn) [Compound 2, 4-allyl-5-(4-pyridinyl)-4H-1,2,4-triazol-3-yl 2-[3,5-di(2-furyl)-4,5-dihydro-1H-pyrazol-1-yl]-2-oxoethyl sulfide], on MDM2, the Ki (in general, a dissociation constant, usually derived from enzyme kinetics or from competition with a known ligand) was 9.5 µM. For the same compound, the “Inhibition (200 μM, %)” value at MDM2 came out at 95.8%. Also, the inhibition (as a rule, the percentage by which the read-out fell short of the control) at 200 µM at MDM2 was > 80%. In addition, the IC50 was 35.5 ± 1.48 µM in the test on HCT116 (p53 +/+) cells (setting [1]); 58.2 ± 4.57 µM in the test on HCT116 (p53 -/-) cells (setting [1]); > 100 µM in the test on MCF7 (p53 +/+) cells (Homo sapiens, MCF7, MTT, 48 h); > 100 µM in the test with MCF7 (p53 -/-) cells (MCF7, MTT, 48 h); > 200 µM on Cathepsin K.
The compound `O=S(=O)(Nc1nc2ccccc2nc1Nc1cccc(O)c1)c1ccc(Cl)cc1` [Compound 5, 4-chloro-N-[3-(3-hydroxyanilino)-2-quinoxalinyl]benzenesulfonamide] registered a Ki at MDM2 of 8.5 µM. Moreover, the “Inhibition (200 μM, %)” value at MDM2 is 90.31%. Further, at MDM2, the inhibition at 200 µM was > 80%. Moreover, the IC50 in the test with HCT116 (p53 +/+) cells (Homo sapiens, HCT-116, 48 h) is 17.4 ± 1.8 µM; in the test on HCT116 (p53 -/-) cells (Homo sapiens, HCT-116, 48 h), 40.8 ± 3.54 µM; in the test with MCF7 (p53 +/+) cells (Homo sapiens, MCF7, 48 h) it was 40.2 ± 1.77 µM; in the test with MCF7 (p53 -/-) cells (MCF7, 48 h) it was 56.4 ± 4.12 µM; at Cathepsin K it was > 200 µM.
Compound `C=CCn1c(COc2ccccc2)nnc1SC(C)C(=O)NN=Cc1ccccc1F` (stereo not drawn) [Compound 8, 2-{[4-allyl-5-(phenoxymethyl)-4H-1,2,4-triazol-3-yl]sulfanyl}-N'-(2-fluorobenzylidene)propanohydrazide] registered a Ki at MDM2 of 23.4 µM. Further, the “Inhibition (200 μM, %)” value at MDM2 is 84.7%. In addition, the inhibition at 200 µM on MDM2 was > 80%. Moreover, the IC50 was > 100 µM in the test with HCT116 (p53 +/+) cells (setting [1]); > 100 µM in the test on HCT116 (p53 -/-) cells (setting [1]); > 100 µM with MCF7 (p53 +/+) cells (Homo sapiens, MCF7, MTT, 48 h); > 100 µM with MCF7 (p53 -/-) cells (MCF7, MTT, 48 h); > 200 µM on Cathepsin K.
As to `COc1cccc(OCC(=O)N(Cc2nc(-c3ccccc3)no2)C2CCCCC2)c1` [Compound 10, N-cyclohexyl-2-(3-methoxyphenoxy)-N-[(3-phenyl-1,2,4-oxadiazol-5-yl)methyl]acetamide], at MDM2, the Ki was 3.2 µM. Moreover, the “Inhibition (200 μM, %)” value on MDM2 is listed as 96.5%. Also, the inhibition at 200 µM at MDM2 is > 80%. Also, the “fold less potent in MDM2 binding affinity than nutlin-3a” value at MDM2 (versus nutlin-3a) is reported as “approximately 20 fold”. Moreover, the IC50 is 12.6 ± 2.32 µM in the test on HCT116 (p53 +/+) cells (Homo sapiens, HCT-116, 48 h); 24.1 ± 2.31 µM in the test with HCT116 (p53 -/-) cells (Homo sapiens, HCT-116, 48 h); 19.4 ± 2.26 µM in the test on MCF7 (p53 +/+) cells (Homo sapiens, MCF7, 48 h); 26.7 ± 1.65 µM in the test on MCF7 (p53 -/-) cells (MCF7, MTT, 48 h); > 200 µM at Cathepsin K.
`O=C(O)CC1c2ccccc2CCN1S(=O)(=O)c1ccccc1` (stereo not drawn) [Compound 15, [2-(phenylsulfonyl)-1,2,3,4-tetrahydroisoquinolin-1-yl]acetic acid] came in with a Ki at MDM2 of 23.1 µM. In addition, the “Inhibition (200 μM, %)” value on MDM2 is 82.1%. For the same compound, at MDM2, the inhibition at 200 µM was > 80%. Besides, the IC50 in the test on HCT116 (p53 +/+) cells (setting [1]) is 28.1 ± 2.53 µM; in the test on HCT116 (p53 -/-) cells (setting [1]), 51.7 ± 4.15 µM; with MCF7 (p53 +/+) cells (Homo sapiens, MCF7, MTT, 48 h), > 100 µM; in the test on MCF7 (p53 -/-) cells (MCF7, MTT, 48 h), > 100 µM; at Cathepsin K, > 200 µM.
Consider `Cc1nn(-c2ccccc2)c(O)c1/N=N/c1cccc2ncccc12` [Compound 16, 3-Methyl-1-phenyl-4-(quinolin-5-yldiazenyl)-1H-pyrazol-5-ol], for which, on MDM2 (fluorescence polarization, eight concentrations 0.091–200 μM), the affinity corresponds to a Ki of 64.6 µM. For the same compound, on MDM2, the inhibition at 200 µM was 72.4%. Also, the IC50 at Cathepsin K is > 200 µM.
For the compound `CCOC(=O)c1c(-c2ccccc2)oc2ccc(O)c(CN(C)C)c12` [Compound 17, Ethyl 4-[(dimethylamino)methyl]-5-hydroxy-2-phenyl-1-benzofuran-3-carboxylate], at MDM2, the inhibition constant (Ki) is > 200 µM; the “Inhibition (200 μM, %)” value is on record as 47.3%; the inhibition at 200 µM is < 50%. Moreover, the IC50 on Cathepsin K is > 200 µM.
For `COc1ccc(C2=N[C@@H](c3ccc(Cl)cc3)[C@@H](c3ccc(Cl)cc3)N2C(=O)N2CCNC(=O)C2)c(OC(C)C)c1` [Nutlin-3a, reference compound], the IC50 is 18.1 ± 2.17 µM in the test with HCT116 (p53 +/+) cells (MTT, 48 h); 40.7 ± 1.47 µM in the test on HCT116 (p53 -/-) cells (MTT, 48 h); 32.2 ± 1.49 µM in the test with MCF7 (p53 +/+) cells (MTT, 48 h).
As to `CCOc1cc(C(C)(C)C)ccc1C1=NC(C)(c2ccc(Cl)cc2)C(C)(c2ccc(Cl)cc2)N1C(=O)N1CCN(CCCS(C)(=O)=O)CC1` (stereo not drawn) [TS-2], in the test on human MDM2, the IC50 was 18 nM.
Turning to `CC(C)(C)C[C@H]1N[C@@H](C(N)=O)[C@H](c2cccc(Cl)c2F)C12C(=O)Nc1cc(Cl)ccc12` (stereo partly drawn) [TS-5], the Ki on human MDM2 (read-out: Potency human MDM2 (nM), Ki) is 3 nM.
Turning to `O=C(NCCN1CCOCC1)c1[nH]c2cc(Cl)ccc2c1-c1c(-c2ccccc2)ncn1Cc1ccc(Cl)cc1` [TS-6], the IC50 in the test with human MDM2 was 30 nM.

The values are drawn from PMC8369186, “Ligand-Based and Docking-Based Virtual Screening of MDM2 Inhibitors as Potent Anticancer Agents” (Computational and Mathematical Methods in Medicine, 2021).
